Experimental data as given in patent US11278522B2, “Use of methadone metabolites for treatment of anxiety and depression” (Georgetown University, priority 2015, dated 2022).
Several values for one entry are separate records, joined by “and”; a condition that tells them apart may be missing. Identical values can stand only once. Counter-ions that a name gives are not always drawn.

What was measured:
Forced swim test (rats) = type: in vivo, rat; conditions: three doses, 5 min test, vehicle 81 s
Experimental: Forced Swim Test (FST; Rats) The FST in rats was conducted as previously described (Porsolt et al., 2001). On day 1, rats were placed in a cylindrical chamber (20 cm in diameter, 46 cm deep) filled to a height of 38 cm with room temperature water for 15 min. After the completion of this pre-exposure test, animals were removed from the apparatus, dried with towels and placed under a heat lamp for ˜30 min. […] Animals were treated with these same doses again 20 h and 23 h after the initial dose. Twenty-four h after the pre-exposure, animals were re-introduced to the apparatus and video-recorded for 5 min. Immobility was hand-scored for each video record by a treatment blind observer (P.A.F.) using ANYmaze (Stoelting) to record the data.

Marble burying (mice) = type: in vivo, mouse; conditions: 15 min test, vehicle mean 11 of 20
Experimental: Marble Burying (Mice) After a 1 h period of acclimation to the testing room, the mice (n=6-10 per group) were injected i.p. with saline, EDDP, EMDP, or CDP at the doses indicated. Ten minutes later, the mice were placed individually in small cages (26×20×14 cm), in which twenty marbles had been equally distributed on top of mouse bedding (5-cm deep), and a wire lid was placed on top of the cage. Mice were left undisturbed for 15 min, after which time the number of buried marbles (i.e., those covered by bedding three-quarters or more) was counted.

[1] = Open field locomotor activity (rats); type: in vivo, rat; conditions: 10 mg/kg s.c., 30 min after injection
Experimental: Locomotor Activity (Rats) Locomotor activity was measured 30 minutes after sc injection of test compound. Animals were placed in a Plexiglass enclosure (16″×16″×16″, TruScan Arena, Coulbourn Instruments, Whitehall, Pa.) with 770 lux illumination over the center of the arena. Animals were allowed to explore for 20 min, during which total distance traveled was recorded using ANYmaze software (Stoelting Co., Wood Dale, Ill.), as previously described (Forcelli et al., 2012).

rat α3β4 nAChR channels = rat α3β4 nAChR channels (Rattus norvegicus, UniProt P04757+P12392); conditions: Xiao et al., 2001; cited from earlier work
Forced swim test (mice) = type: in vivo, mouse; conditions: 6 min test
Experimental: Forced Swim Test (FST; Mice) The FST in mice was conducted as previously described [11]. Briefly, 10 min following i.p. injection of saline, EDDP or EMDP, mice were placed in Plexiglas cylinders filled with water (25° C.) for 6 min while being videotaped. The forced swim score for the entire 6 min test was assessed using the Cleversystems videotracking system (CleverSys) and confirmed with visual scoring by a trained observer. A mouse was judged to be immobile when making only those movements necessary to keep its head above water.

opiate receptors = experiment: [3H]-naloxone binding competition in rat forebrain membranes
[2] = Elevated plus maze (rats); type: in vivo, rat
Experimental: Elevated Plus Maze (Rats) Plus maze testing was performed and scored as previously described (Forcelli and Heinrichs, 2008; Forcelli et al., 2012), in a standard grey rat elevated plus maze (50 cm arms, elevated 40 cm off the ground [Stoelting Co., Wood Dale, Ill.]). Testing was conducted under 20 lux red light, 30 min after drug administration. The number of arm entries and time spent in open and closed arms were recorded using ANYmaze (Stoelting Co, Wood Dale, Ill.).

human α4β2 nAChRs = target: T1, human α4β2 nAChRs (Homo sapiens, UniProt P17787+P43681); experiment: 86Rb+ efflux assay, inhibition of nicotine-stimulated efflux, α4β2 nAChRs; type: cell-based; conditions: 86Rb+ efflux stimulated by 100 μM nicotine; HEK cells YXα4β2H1; mean ± standard error
T1 construct: expressed in transfected cells
Experimental: (§1) Stable cell lines and ^86Rb^+ efflux Assay. The cell lines expressing human α4β2 (YXα4β2H1) and α3β4 (YXα3β4H1) nAChRs were established recently (Xiao el al., 2012). These cell lines were maintained in minimum essential medium (MEM) supplemented with 10% fetal bovine serum, 100 units/mL penicillin G, […] streptomycin and selective antibiotics at 37° C. with 5% CO2 in a humidified incubator. Tissue culture medium and antibiotics were obtained from Invitrogen Corporation (Carlsbad, Calif.), unless otherwise stated. Fetal bovine serum was obtained from Gemini Bio-Products (Woodland, Calif.).
(§2) Functional properties of compounds at nAChRs expressed in the transfected cells were measured using ^86Rb^+ efflux assays as described previously (Xiao et al., 1998, 2001). In brief, cells were plated into 24-well plates coated with poly-D-lysine. The plated cells were grown at 37° C. for 18 to 24 hour to reach 85-95% confluence. The cells were then incubated in growth medium (0.5 mL/well) containing ^86Rb^+ (2 μCi/mL) for 4 hour at 37° C. The loading mixture was then aspirated, and the cells were washed four times with 1 mL buffer (15 mM HEPES, 140 mM NaCl, 2 mM KCl, 1 mM MgSO4, 1.8 mM CaCl2), 11 mM Glucose, pH 7.4). One mL of buffer with or without compounds to be tested was then added to each well. After incubation for 2 min, the assay buffer was collected for measurements of ^86Rb^+ released from the cells. Cells were then lysed by adding 1 mL of 100 mM NaOH to each well, and the lysate was collected for determination of the amount of ^86Rb^+ that was in the cells at the end of the efflux assay. Radioactivity of assay samples and lysates was measured by liquid scintillation counting. Total loading (cpm) was calculated as the sum of the assay sample and the lysate of each well, and the amount of ^86Rb^+ efflux was expressed as a percentage of ^86Rb^+ loaded. Stimulated ^86Rb^+ efflux was defined as the difference between efflux in the presence and absence of nicotine. […] IC50 values were determined by nonlinear least-squares regression analyses (GraphPad. San Diego, Calif.).

human α3β4 nAChRs = target: T2, human α3β4 nAChRs (Homo sapiens, UniProt P30926+P32297); experiment: 86Rb+ efflux assay, inhibition of nicotine-stimulated efflux, α3β4 nAChRs; type: cell-based; conditions: 86Rb+ efflux stimulated by 100 μM nicotine; HEK cells YXα3β4H1; mean ± standard error
T2 construct: expressed in transfected cells
Experimental: as §1, with “The cell lines expressing human α4β2 (YXα4β2H1) and α3β4 (YXα3β4H1) nAChRs were established recently (Xiao el al., 2012).” left out
as §2, with “In” for “Functional properties of compounds at nAChRs expressed in the transfected cells were measured using ^86Rb^+ efflux assays as described previously (Xiao et al., 1998, 2001). In”, “The plated cells were grown at 37° C. for 18 to 24 hour to reach 85-95% confluence.” left out

[3] = Eyelid ptosis assessment (rats); type: in vivo, rat; conditions: 5 mg/kg
Experimental: Ptosis was assessed as previously described (Rubin et al., 1957). Each animal was photographed while gently restrained by hand. Photographs were analyzed by a treatment blind observer (P.A.F.) and assigned a score of 0 (no ptosis, eye completely open), 1 (mild, eye partially closed), 2 (moderate, eye half closed), 3 (severe, eye […] closed), or 4 (complete, eye completely closed).

T2 sequence (P32297 32-505): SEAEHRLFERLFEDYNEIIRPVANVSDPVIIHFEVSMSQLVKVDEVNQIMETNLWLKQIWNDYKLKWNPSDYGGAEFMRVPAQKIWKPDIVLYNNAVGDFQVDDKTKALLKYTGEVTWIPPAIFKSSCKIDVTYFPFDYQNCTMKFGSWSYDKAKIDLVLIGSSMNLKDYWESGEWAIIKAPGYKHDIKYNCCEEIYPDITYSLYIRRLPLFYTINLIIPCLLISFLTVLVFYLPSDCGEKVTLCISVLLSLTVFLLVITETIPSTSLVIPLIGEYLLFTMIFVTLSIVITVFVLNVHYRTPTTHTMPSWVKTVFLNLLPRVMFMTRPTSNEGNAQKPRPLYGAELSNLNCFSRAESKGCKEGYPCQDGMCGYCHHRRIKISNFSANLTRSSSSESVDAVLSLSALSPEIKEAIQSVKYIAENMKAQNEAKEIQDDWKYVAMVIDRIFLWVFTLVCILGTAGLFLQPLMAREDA
T2 sequence (P30926 22-498): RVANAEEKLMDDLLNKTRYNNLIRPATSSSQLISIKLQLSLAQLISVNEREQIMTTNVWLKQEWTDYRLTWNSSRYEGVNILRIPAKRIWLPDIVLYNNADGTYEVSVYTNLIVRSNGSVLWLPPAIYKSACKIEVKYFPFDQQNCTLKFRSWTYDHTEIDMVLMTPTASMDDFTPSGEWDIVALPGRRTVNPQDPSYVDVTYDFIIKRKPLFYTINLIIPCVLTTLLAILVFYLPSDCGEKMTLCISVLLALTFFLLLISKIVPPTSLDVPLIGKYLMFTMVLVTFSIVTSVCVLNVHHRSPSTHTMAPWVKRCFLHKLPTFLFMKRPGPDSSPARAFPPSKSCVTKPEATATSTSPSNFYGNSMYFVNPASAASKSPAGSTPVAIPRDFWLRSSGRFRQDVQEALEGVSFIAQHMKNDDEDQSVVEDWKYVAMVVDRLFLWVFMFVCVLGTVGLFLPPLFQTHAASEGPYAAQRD
T1 sequence (P43681 29-627 limits assumed): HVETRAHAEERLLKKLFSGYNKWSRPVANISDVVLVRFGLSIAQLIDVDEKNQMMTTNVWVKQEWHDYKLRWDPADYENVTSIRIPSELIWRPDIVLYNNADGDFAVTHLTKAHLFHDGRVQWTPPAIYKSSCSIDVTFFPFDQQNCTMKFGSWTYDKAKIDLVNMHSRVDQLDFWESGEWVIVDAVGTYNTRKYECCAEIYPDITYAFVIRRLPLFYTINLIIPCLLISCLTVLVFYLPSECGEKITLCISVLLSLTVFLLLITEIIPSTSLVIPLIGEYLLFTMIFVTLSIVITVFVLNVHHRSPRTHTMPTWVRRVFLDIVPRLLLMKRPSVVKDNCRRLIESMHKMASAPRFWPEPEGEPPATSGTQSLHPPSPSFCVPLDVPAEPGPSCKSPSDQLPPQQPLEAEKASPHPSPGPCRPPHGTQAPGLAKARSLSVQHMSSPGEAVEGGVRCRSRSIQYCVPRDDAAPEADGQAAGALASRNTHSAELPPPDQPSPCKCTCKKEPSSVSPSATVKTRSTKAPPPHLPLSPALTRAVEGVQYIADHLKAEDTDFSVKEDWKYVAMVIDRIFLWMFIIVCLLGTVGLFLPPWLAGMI
T1 sequence (P17787 26-502): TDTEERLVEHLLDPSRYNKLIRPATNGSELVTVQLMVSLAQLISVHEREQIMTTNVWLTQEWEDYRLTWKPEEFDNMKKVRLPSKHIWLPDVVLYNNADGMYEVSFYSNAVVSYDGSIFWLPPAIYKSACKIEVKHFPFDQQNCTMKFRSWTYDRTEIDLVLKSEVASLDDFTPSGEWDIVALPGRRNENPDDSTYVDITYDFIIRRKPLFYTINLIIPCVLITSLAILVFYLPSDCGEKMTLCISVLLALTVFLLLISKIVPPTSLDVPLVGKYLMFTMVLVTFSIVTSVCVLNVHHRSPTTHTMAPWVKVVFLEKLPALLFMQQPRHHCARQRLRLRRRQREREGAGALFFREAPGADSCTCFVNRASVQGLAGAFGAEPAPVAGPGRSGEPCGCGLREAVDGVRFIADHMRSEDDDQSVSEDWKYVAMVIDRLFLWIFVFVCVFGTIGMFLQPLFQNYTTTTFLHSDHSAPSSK
Chain of rat α3β4 nAChR channels (P04757 26-499): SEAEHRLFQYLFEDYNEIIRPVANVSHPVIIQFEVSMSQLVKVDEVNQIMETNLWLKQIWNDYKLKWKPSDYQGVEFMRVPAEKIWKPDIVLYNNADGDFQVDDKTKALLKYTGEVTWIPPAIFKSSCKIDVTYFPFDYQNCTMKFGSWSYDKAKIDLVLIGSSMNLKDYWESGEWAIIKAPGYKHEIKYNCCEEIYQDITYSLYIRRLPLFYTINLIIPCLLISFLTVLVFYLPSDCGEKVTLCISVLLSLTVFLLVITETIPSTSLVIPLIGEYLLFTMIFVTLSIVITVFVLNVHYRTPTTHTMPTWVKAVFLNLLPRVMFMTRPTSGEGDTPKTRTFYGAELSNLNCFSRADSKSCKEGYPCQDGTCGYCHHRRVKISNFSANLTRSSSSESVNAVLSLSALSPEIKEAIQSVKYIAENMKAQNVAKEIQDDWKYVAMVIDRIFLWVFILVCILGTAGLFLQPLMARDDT
Chain of rat α3β4 nAChR channels (P12392 21-495): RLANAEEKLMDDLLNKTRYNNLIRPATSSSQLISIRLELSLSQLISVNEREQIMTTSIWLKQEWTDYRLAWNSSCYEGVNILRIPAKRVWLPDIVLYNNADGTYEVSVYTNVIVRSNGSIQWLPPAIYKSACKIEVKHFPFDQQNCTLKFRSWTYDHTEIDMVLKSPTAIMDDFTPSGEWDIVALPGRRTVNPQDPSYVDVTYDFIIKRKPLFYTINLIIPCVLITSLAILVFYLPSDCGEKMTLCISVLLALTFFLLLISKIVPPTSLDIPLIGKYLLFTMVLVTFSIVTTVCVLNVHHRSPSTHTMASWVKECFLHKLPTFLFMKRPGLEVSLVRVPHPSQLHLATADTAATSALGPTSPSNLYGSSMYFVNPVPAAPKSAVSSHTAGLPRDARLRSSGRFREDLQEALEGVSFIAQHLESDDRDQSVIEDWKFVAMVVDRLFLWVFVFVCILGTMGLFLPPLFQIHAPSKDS

CC=C1N(C)C(C)CC1(c1ccccc1)c1ccccc1 (racemic) [EDDP, 2-ethylidene-1,5-dimethyl-3,3-diphenylpyrrolidine]
immobile time in forced swim test vs vehicle (Forced swim test (rats); 10 mg/kg s.c.): without effect | number of marbles buried vs vehicle (Marble burying (mice); 5 mg/kg i.p.): buried significantly fewer marbles | number of marbles buried vs vehicle (Marble burying (mice); 10 mg/kg i.p.): did not reach statistical significance | open field locomotor activity [1]: neither EDDP nor EMDP significantly altered | block of rat α3β4 nAChR channels (rat α3β4 nAChR channels): potently block | duration of immobility in forced swim test vs vehicle (Forced swim test (mice); 1 mg/kg i.p.): did not produce a significant effect | duration of immobility in forced swim test vs vehicle (Forced swim test (mice); 5 mg/kg i.p.): did not produce a significant effect | duration of immobility in forced swim test vs vehicle (Forced swim test (mice); 10 mg/kg i.p.): did not produce a significant effect | apparent affinity, fold lower than that of methadone (opiate receptors; rat forebrain [3H]-naloxone binding): ~83 fold and 84 fold | fraction of [3H]-naloxone binding sites competed for (opiate receptors; rat forebrain membranes): nearly all of the binding sites | Ki (opiate receptors; rat forebrain membranes, 2 nM [3H]-naloxone, single-site model): 918 nM | mean duration in the open arms of the elevated plus maze ([2]; 10 mg/kg s.c., 30 min after drug, vehicle 104 s): 80 s | percentage of entries made into the open arms of the plus maze ([2]; vs vehicle): the groups did not differ | latency to first entry in the open arms ([2]; vs vehicle (data not shown)): did not differ as a function of treatment group

CN[C@H]1CC[C@@H](c2ccc(Cl)c(Cl)c2)c2ccccc21 [sertraline, sertraline HCl, reference compound]
immobile time in forced swim test vs vehicle (Forced swim test (rats); 20 mg/kg s.c.): significantly reduced immobile time

CNC1=Nc2ccc(Cl)cc2C(c2ccccc2)=[N+]([O-])C1 [CDP, chlordiazepoxide HCl, reference compound]
number of marbles buried vs vehicle (Marble burying (mice); 10 mg/kg i.p.): buried significantly fewer marbles

CC=C1N(C)C(C)CC1(c1ccccc1)c1ccccc1 (single isomer, unassigned; (-)) [(−)-EDDP, 2-ethylidene-1,5,dimethyl-3,3-diphenylpyrrolidine perchlorate]
IC50 (human α4β2 nAChRs): 1400 ± 200 nM | IC50 (human α3β4 nAChRs): 700 ± 60 nM

CC=C1N(C)C(C)CC1(c1ccccc1)c1ccccc1 (single isomer, unassigned; (+)) [(+)-EDDP, 2-ethylidene-1,5,dimethyl-3,3-diphenylpyrrolidine perchlorate]
IC50 (human α4β2 nAChRs): 1800 ± 600 nM | IC50 (human α3β4 nAChRs): 900 ± 90 nM

CCC1=NC(C)CC1(c1ccccc1)c1ccccc1 (single isomer, unassigned; (+)) [(+)-EMDP, 2-ethyl-5-methyl-3,3-diphenyl-1-pyrroline hydrochloride]
IC50 (human α4β2 nAChRs): 24000 ± 5000 nM | IC50 (human α3β4 nAChRs): 7400 ± 2100 nM

CCC1=NC(C)CC1(c1ccccc1)c1ccccc1 (single isomer, unassigned; (-)) [(−)-EMDP, 2-ethyl-5-methyl-3,3-diphenyl-1-pyrroline hydrochloride]
IC50 (human α4β2 nAChRs): 19000 ± 4000 nM | IC50 (human α3β4 nAChRs): 7000 ± 1200 nM

CNC1(C)C2CCC(C2)C1(C)C (centres unmarked) [Mecamylamine, Mecamylamine HCl]
IC50 (human α4β2 nAChRs): 1000 ± 300 nM | immobile time in forced swim test vs vehicle (Forced swim test (rats); 5 mg/kg s.c.): reduced immobile time | eyelid ptosis quantified over 3 h [3]: produced ptosis in a time-dependent manner | onset of ptosis after injection [3]: ≤ 15 min | ptosis observed during forced swim tests [3]: obvious ptosis
